Experimental data as given in patent US20220026415A1, “A METHOD FOR SCREENING A THERAPEUTIC AGENT FOR CANCER USING BINDING INHIBITOR OF CYCLIN-DEPENDENT KINASE 1 (CDK1)-CYCLIN B1 AND RETINOIC ACID RECEPTOR RESPONDER 1 (RARRES1) GENE KNOCKOUT ANIMAL MODEL” (NATIONAL CANCER CENTER, priority 2018, published 2022).
Where a SMILES comes first, the peptide text is derived from it. The star is where a group is joined. Cbz = O=C(OCc1ccccc1)*

Legend:
CDK1 protein = assay: Amount of CDK1 protein in cells transfected with RARRES1 and CDK1, treated with protein degradation inhibitors; assay type: cell-based; settings: cells transfected with RARRES1 along with CDK1
Method: […]
In addition, when cells were transfected with RARRES1 along with CDK1 using the method of Example 1-1, the amount of the CDK1 protein was reduced. To examine how a quantitative change in the CDK1 protein was regulated, cells were treated with protein degradation inhibitors.

Rarres1 KO MEFs = assay: Nocodazole treatment of MEFs, flow cytometry, cell counting and western blotting; assay type: cell-based, mouse
Method: For analysis of cell cycles or sub-G1 DNA contents, cells were immobilized with 80% ice-cold ethanol, and stored at 4° C. The cells were stained with PBS containing 50 ug/ml of propidium iodide (PI) and 100 ug/ml of RNase A at 37° C. for 30 minutes. DNA content was analyzed by FACS Calibur flow cytometry and the results thereof were analyzed using Cellquest software (Becton-Dickinson Immunocytometry Systems, San Diego, Calif.) and Modfit LT 3.3 software. At least 10,000 cells were analyzed per sample.
Growth was examined using MEFs derived from 13.5-day-old embryos. Cells were plated on a 6-well plate at a density of 20,000 cells/well, and then the number of the cells was counted every day from the following day for 5 days. To examine cell survival in response to nocodazole, which is a cell division inhibitor, cells were treated with 50 ng/ml or 100 ng/ml of nocodazole for 48 hours and cultured. Subsequently, the cells were treated with trypsin/EDTA and detached, followed by cell counting.
It was determined whether a mitotic stress-inducing drug such as nocodazole affects Rarres1 KO MEFs. MEF cells were treated with nocodazole (50 ng/ml or 100 ng/ml) or DMSO for 48 hours, and flow cytometry and cell counting according to Example 1-10 were performed thereon.

RARRES1 expression = assay: Restoration of RARRES1 expression by DNA methylation inhibitor, RT-PCR; assay type: cell-based, human; settings: for tested cell lines showing restored RARRES1 expression in a dose-dependent manner: 5, 25 and 100 uM for 5 days
Method: Total RNA was extracted from human cancer cell lines including prostate cancer, lung cancer, and breast cancer by using a TRIzol reagent (Invitrogen) according to the manufacturer's instructions, and 1 ug of total RNA was converted into cDNA with a Superscript® reverse transcriptase (Invitrogen). Primers used for human DNA were as follows: RARRES1-1-F ([…]), RARRES1-1-R ([…]), RARRES1-2-F ([…]), RARRES1-2-R ([…]), Cyclin B1-F ([…]), Cyclin B1-R ([…]), Actin-F ([…]), and Actin-R ([…]), and the primers respectively yielded PCR products with predicted sizes of 327 bp, 359 bp, 347 bp, and 626 bp. Primers used for mouse DNA were as follows: Rarres1-F([…]), Rarres1-R ([…]), Gapdh-F (TGCACCACCAACTGCTTA), and Gapdh-R (GGATGCAGGGATGATGTTC), and these primers respectively yielded PCR products with predicted sizes of 653 bp and 177 bp.
To determine whether promoter methylation was associated with the silencing of the RARRES1 expression in cancer cells, cells were treated with 5-aza-2′-deoxycytidine (5-aza-2-dC; 5, 25, and 100 uM) as an inhibitor of DNA methylation for 5 days.

[1] = system: embryonic epithelial cells; assay: Spheroid-formation assay with or without CDK1 inhibitor; assay type: cell-based, mouse
Method: Mouse embryo fibroblasts (MEFs) and mouse embryo epithelial cells (MEEs) were derived from 13.5-day-old embryos as previously described. That is, after removal of the head and internal organs, embryos were rinsed with phosphate buffered saline (PBS), minced, and treated with trypsin/EDTA to obtain single cells. The MEFs was resuspended in DMEM containing 10% FBS, 2 mM L-glutamine, 0.1 mM MEM nonessential amino acids, 55 uM beta-mercaptoethanol, and 100 IU/ml penicillin, and 100 ug/ml streptomycin. Cell media and reagents were obtained from GIBCO (Paisley, England). The MEEs were cultured in a D-MEM/F-12 medium containing 1% FBS, 1 mg of insulin, 1 mg of hydrocortisone, 12.5 μg of EGF, 10 mg of ascorbic acid, 10 mg of transferin, 14.1 mg of phosphoethanolamine, Na selenite, 1 μg of cholera toxin, 6.5 μg of triiodo thyronine, 35 mg of bovine pituitary extract, ethanolamine, 50 IU/ml of penicillin, and 50 ug/ml of streptomycin. The cells were incubated at 37° C. in a 5% CO2-humidified chamber. After disintegration of the embryos, plating was considered passage 0. All experiments were carried out using cells within passage 5 from three different batches. The genotypes of the MEFs and MEEs were confirmed by genotyping PCR. At least three independently generated cell lines per genotype were used.
In spheroid-formation assay, as mentioned above, advanced DMEM/F12 media used for embryonic epithelial cell culture were employed. The cells from the embryo of Rarres1^+/+ and Rarres1^−/− mice were suspended and seeded in […] with or without RO3306, CDK1 inhibitor, in a 24-well plate at a density of 2,000 or 5,000 cells per well. The size and number of spheres formed while adding 300 μl of a medium once three to four days were measured.

[2] = some cancer cells (CWR22rv, T47D)

CC(C)C[C@@H](C=O)NC(=O)[C@H](CC(C)C)NC(=O)[C@H](CC(C)C)NC(=O)OCc1ccccc1 [MG132] (Cbz-Leu-Leu-Leu-aldehyde)
amount of the CDK1 protein, which had been decreased by RARRES1 (CDK1 protein): still decreased

COC(=O)Nc1nc2ccc(C(=O)c3cccs3)cc2[nH]1 [nocodazole]
cleavage of PARP and Caspase 3 (Rarres1 KO MEFs; KO cells compared to WT cells, nocodazole treated): decreased | number of the cells after nocodazole treatment (Rarres1 KO MEFs; Rarres1-deficient MEFs versus WT MEFs, 50 or 100 ng/ml, 48 hours): less reduced | cell death induced by nocodazole (Rarres1 KO MEFs; Rarres1-deficient MEFs versus WT MEFs, 50 or 100 ng/ml, 48 hours, dose-dependent): significantly reduced

CO/C1=C\C(C)=C\[C@@H](C)[C@@H](O)[C@@H](C)C/C(C)=C/C=C/[C@H](OC)[C@@H]([C@@H](C)[C@@H](O)[C@H](C)[C@@]2(O)C[C@@H](O)[C@H](C)[C@@H](C(C)C)O2)OC1=O [BafA1, Bafilomycin A1]
amount of the CDK1 protein, which had been decreased by RARRES1 (CDK1 protein): increased again

Nc1ncn([C@H]2C[C@H](O)[C@@H](CO)O2)c(=O)n1 [5-aza-2-dC, 5-aza-2′-deoxycytidine]
RARRES1 expression after treatment (RARRES1 expression; Calu3 and HCC70 cells having high mRNA levels of RARRES1): failed to have reintroduced RARRES1 expression | mRNA level of the RARRES1 gene after treatment (RARRES1 expression; JIMT-1 cells): reduced | tested cell lines showing restored RARRES1 expression in a dose-dependent manner (RARRES1 expression; breast cancer cell lines (8/10)): 80% | tested cell lines showing restored RARRES1 expression in a dose-dependent manner (RARRES1 expression; lung cancer cell lines (4/5)): 80% | tested cell lines showing restored RARRES1 expression in a dose-dependent manner (RARRES1 expression; prostate cancer cell lines (4/4)): 100% | RARRES1 isoform 1 after treatment (RARRES1 expression; [2]): increased | RARRES1 isoform 2 after treatment (RARRES1 expression; [2]): not detected

O=C1NC(=NCc2cccs2)S/C1=C\c1ccc2ncccc2c1 [RO3306]
overall spheroid formation ([1]; RO3306-treated versus not treated, cells from Rarres1+/+ and Rarres1-/- embryos): significantly reduced | sphere formation under RO3306 ([1]; embryonic epithelial cells from Rarres1-deficient mice): formed spheres | sphere formation under RO3306 ([1]; embryonic epithelial cells of the control mice): barely formed spheres
